Paper PMC3879121 (Journal of natural products, 2013)

Experiments:
HDAC4 = HDAC4 (Homo sapiens, UniProt P56524); experiment: HDAC enzyme assay; settings: at 1 µM, initial results (data not shown)
HDAC2 = HDAC2 (Homo sapiens, UniProt Q92769); experiment: HDAC enzyme assay; settings: for inhibition of HDAC2: at 1 µM, initial results (data not shown)
[1] = system: human dermal fibroblast (hDF) cells; experiment: Cell cytotoxicity MTS-PMS assay, hDF; type: cell-based; settings: 72 h, read-out: hDF GI50

Sequence of HDAC4 (P56524 whole entry): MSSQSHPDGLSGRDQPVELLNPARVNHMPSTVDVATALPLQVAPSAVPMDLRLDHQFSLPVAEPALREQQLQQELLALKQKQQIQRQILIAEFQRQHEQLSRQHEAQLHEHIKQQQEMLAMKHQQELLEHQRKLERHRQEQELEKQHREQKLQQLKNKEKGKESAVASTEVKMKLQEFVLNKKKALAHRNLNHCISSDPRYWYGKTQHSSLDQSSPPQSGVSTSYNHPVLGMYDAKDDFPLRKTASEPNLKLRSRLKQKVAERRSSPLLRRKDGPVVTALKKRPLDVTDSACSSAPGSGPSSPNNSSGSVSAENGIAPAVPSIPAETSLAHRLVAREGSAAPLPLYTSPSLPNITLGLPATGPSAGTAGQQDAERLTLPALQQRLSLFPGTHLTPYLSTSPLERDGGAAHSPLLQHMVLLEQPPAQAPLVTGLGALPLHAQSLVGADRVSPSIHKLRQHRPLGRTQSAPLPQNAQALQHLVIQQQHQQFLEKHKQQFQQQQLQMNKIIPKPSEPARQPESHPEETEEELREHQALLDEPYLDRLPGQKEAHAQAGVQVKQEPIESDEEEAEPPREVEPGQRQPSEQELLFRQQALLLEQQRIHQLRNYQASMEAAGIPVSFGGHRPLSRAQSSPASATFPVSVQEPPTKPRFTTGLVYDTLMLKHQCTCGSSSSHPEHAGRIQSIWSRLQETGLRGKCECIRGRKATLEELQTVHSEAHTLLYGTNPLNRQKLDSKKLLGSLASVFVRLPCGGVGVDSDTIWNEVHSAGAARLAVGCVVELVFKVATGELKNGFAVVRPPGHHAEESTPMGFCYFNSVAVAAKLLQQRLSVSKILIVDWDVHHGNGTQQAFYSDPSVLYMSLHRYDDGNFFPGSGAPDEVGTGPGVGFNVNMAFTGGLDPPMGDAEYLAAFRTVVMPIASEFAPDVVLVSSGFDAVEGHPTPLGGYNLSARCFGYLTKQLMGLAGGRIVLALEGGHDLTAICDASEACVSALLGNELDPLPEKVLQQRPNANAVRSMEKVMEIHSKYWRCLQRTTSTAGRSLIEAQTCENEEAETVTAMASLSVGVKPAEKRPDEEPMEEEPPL
Sequence of HDAC2 (Q92769 whole entry): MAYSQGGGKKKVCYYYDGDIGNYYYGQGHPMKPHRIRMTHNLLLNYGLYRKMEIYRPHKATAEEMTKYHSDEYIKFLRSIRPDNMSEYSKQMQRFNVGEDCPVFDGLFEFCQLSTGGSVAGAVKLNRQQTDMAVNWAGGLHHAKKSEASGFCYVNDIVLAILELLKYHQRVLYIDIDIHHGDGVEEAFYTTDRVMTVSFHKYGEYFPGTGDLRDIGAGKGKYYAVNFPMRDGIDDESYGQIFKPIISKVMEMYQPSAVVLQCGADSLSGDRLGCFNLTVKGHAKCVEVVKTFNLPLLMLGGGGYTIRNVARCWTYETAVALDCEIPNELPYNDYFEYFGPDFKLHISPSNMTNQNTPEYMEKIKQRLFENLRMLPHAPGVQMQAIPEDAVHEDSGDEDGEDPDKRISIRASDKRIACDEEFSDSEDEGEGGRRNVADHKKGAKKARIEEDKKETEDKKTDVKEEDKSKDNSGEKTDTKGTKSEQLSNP

inhibition of HDAC4 (HDAC4)	inhibition of HDAC2 (HDAC2)	selectivity for Class I HDACs (HDAC2; HDAC2 versus Class II HDACs)	Compound	GI50 [1] [µM]
completely inhibited	–	–	O=C(CCCCCCC(=O)Nc1ccccc1)NO [compound 2, suberoylanilide hydroxamic acid, reference compound]	–
relatively little inhibition of HDAC4	selectively inhibited HDAC2	–	O=C(CCCC(=O)NCCc1ccccc1)NO [compound 3, N^1-Hydroxy-N^5-phenethylglutaramide]	> 100
relatively little inhibition of HDAC4	selectively inhibited HDAC2	over 3,500 fold	CCOC(=O)NCCCC(=O)NCCc1ccccc1 [compound 1, Ethyl 3-(phenethylcarbamoyl)propylcarbamate]	> 100
